# Laboratory results: patent publication US9655887B2, “Pharmaceutical composition and the use thereof, and application regime of said pharmaceutical composition for on-demand contraception” (BAYER PHARMA AKTIENGESELLSCHAFT, priority 2013, dated 2017)
# Molecular target: EP2 subtype of the human PGE2 receptor (hEP2 receptor) (Homo sapiens, UniProt P43116)
# Assay: cAMP antagonism test, human prostaglandin E2 (subtype EP2) receptor signal
# Type: cell-based
# How it was run: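 Cells (625000 cells/ml, mixed with cAMP-d2) were preincubated 20 min at RT with compound ([…]). They were then stimulated 60 min at RT with a 3× PGE2 solution (1.5 nM) in PBS-IBMX and lysed for 20 min. cAMP was read by HTRF as the 665/620 nm ratio ×10000, with antagonism seen as a rise in FRET signal.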
# Sequence of EP2 subtype of the human PGE2 receptor (hEP2 receptor) (P43116 whole entry): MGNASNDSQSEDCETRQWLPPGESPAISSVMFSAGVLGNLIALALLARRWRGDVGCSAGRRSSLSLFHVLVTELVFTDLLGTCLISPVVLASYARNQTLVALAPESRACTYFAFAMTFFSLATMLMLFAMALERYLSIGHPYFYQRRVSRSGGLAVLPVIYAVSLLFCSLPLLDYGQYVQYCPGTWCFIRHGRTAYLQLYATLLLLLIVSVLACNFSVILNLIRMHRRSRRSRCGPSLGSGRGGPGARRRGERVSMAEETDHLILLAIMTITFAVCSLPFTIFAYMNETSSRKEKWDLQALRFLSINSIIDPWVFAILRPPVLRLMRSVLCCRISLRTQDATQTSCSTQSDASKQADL
row,SMILES,IC50
1,"COCCNC(=O)c1ccc2nn(CC3CN(C(=O)c4ccc(Oc5ccc(F)cc5)cc4)C3)cc2c1C [Example E109, 2-({1-[4-(4-fluorophenoxy)benzoyl]azetidin-3-yl}methyl)-N-(2-methoxyethyl)-4-methyl-2H-indazole-5-carboxamide]",> 50 nM
2,"Cc1c(C(=O)NCCOCC(F)(F)F)ccc2nn(CC3CN(C(=O)c4ccc(Cl)cc4)C3)cc12 [Example E112, 2-{[1-(4-chlorobenzoyl)azetidin-3-yl]methyl}-4-methyl-N-[2-(2,2,2-trifluoroethoxy)-ethyl]-2H-indazole-5-carboxamide]",> 50 nM
3,"Cc1c(C(=O)NCCOCC(F)(F)F)ccc2nn(CC3CN(C(=O)c4ccc(Oc5ccc(C(F)(F)F)cc5)cc4)C3)cc12 [Example E113, 4-methyl-N-[2-(2,2,2-trifluoroethoxy)ethyl]-2-[(1-{4-[4-(trifluoromethyl)phenoxy]-benzoyl}azetidin-3-yl)methyl]-2H-indazole-5-carboxamide]",> 50 nM
4,"Cc1c(C(=O)NCC(F)(F)F)ccc2nn(CC3CN(C(=O)c4ccc(Oc5ccc(C(F)(F)F)cc5)cc4)C3)cc12 [Example E114, 4-methyl-N-(2,2,2-trifluoroethyl)-2-[(1-{4-[4-(trifluoromethyl)phenoxy]benzoyl}-azetidin-3-yl)methyl]-2H-indazole-5-carboxamide]",> 50 nM
5,"Cc1c(C(=O)NCC(F)(F)F)ccc2nn(CC3CN(C(=O)c4ccc(Oc5ccc(Cl)cc5)cc4)C3)cc12 [Example E115, 2-({1-[4-(4-chlorophenoxy)benzoyl]azetidin-3-yl}methyl)-4-methyl-N-(2,2,2-trifluoro-ethyl)-2H-indazole-5-carboxamide]",> 50 nM
6,"COCCNC(=O)c1ccc2nn(CC3CN(C(=O)c4ccc(Oc5ccc(Cl)cc5)cc4)C3)cc2c1C [Example E116, 2-({1-[4-(4-chlorophenoxy)benzoyl]azetidin-3-yl}methyl)-N-(2-methoxyethyl)-4-methyl-2H-indazole-5-carboxamide]",> 50 nM
7,"COCCNC(=O)c1ccc2nn(CC3CN(C(=O)c4ccc(Oc5ccc(C(F)(F)F)cn5)cc4)C3)cc2c1C [Example E117, N-(2-methoxyethyl)-4-methyl-2-{[1-(4-{[5-(trifluoromethyl)pyridin-2-yl]oxy}benzoyl)-azetidin-3-yl]methyl}-2H-indazole-5-carboxamide]",> 50 nM
8,"Cc1c(C(=O)NCC(F)(F)F)ccc2nn(CC3CCN(C(=O)c4ccc(SC(F)(F)F)cc4)CC3)cc12 [Example E125, 4-methyl-N-(2,2,2-trifluoroethyl)-2-[(1-{4-[(trifluoromethyl)sulphanyl]benzoyl}-piperidin-4-yl)methyl]-2H-indazole-5-carboxamide]",> 50 nM
9,"Cc1c(C(=O)NCC(F)(F)F)ccc2nn(CC3CCN(C(=O)c4ccc(Oc5ccc(C(F)(F)F)cn5)cc4)CC3)cc12 [Example E127, 4-methyl-N-(2,2,2-trifluoroethyl)-2-{[1-(4-{[5-(trifluoromethyl)pyridin-2-yl]oxy}-benzoyl)piperidin-4-yl]methyl}-2H-indazole-5-carboxamide]",> 50 nM
10,"Cc1c(C(=O)NCC(F)(F)F)ccc2nn(CC3CCN(C(=O)c4ccc(Oc5ccc(C(F)(F)F)nc5)cc4)CC3)cc12 [Example E128, 4-methyl-N-(2,2,2-trifluoroethyl)-2-{[1-(4-{[6-(trifluoromethyl)pyridin-3-yl]oxy}-benzoyl)piperidin-4-yl]methyl}-2H-indazole-5-carboxamide]",> 50 nM
11,"Cc1c(C(=O)NCC(F)(F)F)ccc2nn(CC3CCN(C(=O)c4ccc(Oc5cccc(F)c5)cc4)CC3)cc12 [Example E131, 2-({1-[4-(3-fluorophenoxy)benzoyl]piperidin-4-yl}methyl)-4-methyl-N-(2,2,2-trifluoro-ethyl)-2H-indazole-5-carboxamide]",> 50 nM
12,"Cc1c(C(=O)NCC(F)(F)F)ccc2nn(CC3CCN(C(=O)c4ccc(Oc5cccc(C(F)(F)F)c5)cc4)CC3)cc12 [Example E132, 4-methyl-N-(2,2,2-trifluoroethyl)-2-[(1-{4-[3-(trifluoromethyl)phenoxy]benzoyl}-piperidin-4-yl)methyl]-2H-indazole-5-carboxamide]",> 50 nM
13,"Cc1c(C(=O)NCC(F)(F)F)ccc2nn(CC3CCN(C(=O)c4ccc(Oc5ccc(F)c(F)c5)cc4)CC3)cc12 [Example E137, 2-({1-[4-(3,4-difluorophenoxy)benzoyl]piperidin-4-yl}methyl)-4-methyl-N-(2,2,2-trifluoroethyl)-2H-indazole-5-carboxamide]",> 50 nM
14,"Cc1c(C(=O)NCC(F)(F)F)ccc2nn(CC3CCN(C(=O)c4ccc(-c5ccc(C(F)(F)F)cc5)cc4)CC3)cc12 [Example E138, 4-methyl-N-(2,2,2-trifluoroethyl)-2-[(1-{[4′-(trifluoromethyl)biphenyl-4-yl]carbonyl}-piperidin-4-yl)methyl]-2H-indazole-5-carboxamide]",> 50 nM
15,"COc1ccc(-c2ccc(C(=O)N3CCC(Cn4cc5c(C)c(C(=O)NCC(F)(F)F)ccc5n4)CC3)cc2)c(C)c1 [Example E141, 2-({1-[(4′-methoxy-2′-methylbiphenyl-4-yl)carbonyl]piperidin-4-yl}methyl)-4-methyl-N-(2,2,2-trifluoroethyl)-2H-indazole-5-carboxamide]",> 50 nM
16,"COc1cc(F)ccc1-c1ccc(C(=O)N2CCC(Cn3cc4c(C)c(C(=O)NCC(F)(F)F)ccc4n3)CC2)cc1 [Example E143, 2-({1-[(4′-fluoro-2′-methoxybiphenyl-4-yl)carbonyl]piperidin-4-yl}methyl)-4-methyl-N-(2,2,2-trifluoroethyl)-2H-indazole-5-carboxamide]",> 50 nM
17,"COCCNC(=O)c1ccc2nn(CC3CCN(C(=O)c4ccc(Oc5ccc(C#N)cc5)cc4)CC3)cc2c1C [Example E153, 2-({1-[4-(4-cyanophenoxy)benzoyl]piperidin-4-yl}methyl)-N-(2-methoxyethyl)-4-methyl-2H-indazole-5-carboxamide]",> 50 nM
18,"COCCNC(=O)c1ccc2nn(CC3CCN(C(=O)c4ccc(Br)c(C)c4)CC3)cc2c1C [Example E154, 2-{[1-(4-bromo-3-methylbenzoyl)piperidin-4-yl]methyl}-N-(2-methoxyethyl)-4-methyl-2H-indazole-5-carboxamide]",> 50 nM
19,"COCCNC(=O)c1ccc2nn(CC3CCN(C(=O)c4ccc(C(C)(C)C)cc4)CC3)cc2c1C [Example E155, 2-{[1-(4-tert-butylbenzoyl)piperidin-4-yl]methyl}-N-(2-methoxyethyl)-4-methyl-2H-indazole-5-carboxamide]",> 50 nM
20,"COCCNC(=O)c1ccc2nn(CC3CCN(C(=O)c4ccc(C5CCCCC5)cc4)CC3)cc2c1C [Example E157, 2-{[1-(4-cyclohexylbenzoyl)piperidin-4-yl]methyl}-N-(2-methoxyethyl)-4-methyl-2H-indazole-5-carboxamide]",> 50 nM
21,"COCCNC(=O)c1ccc2nn(CC3CCN(C(=O)c4ccc(Oc5cccnc5)cc4)CC3)cc2c1C [Example E160, N-(2-methoxyethyl)-4-methyl-2-({1-[4-(pyridin-3-yloxy)benzoyl]piperidin-4-yl}methyl)-2H-indazole-5-carboxamide]",> 50 nM
22,"COCCNC(=O)c1ccc2nn(CC3CCN(C(=O)c4ccc(Oc5ccccn5)cc4)CC3)cc2c1C [Example E162, N-(2-methoxyethyl)-4-methyl-2-({1-[4-(pyridin-2-yloxy)benzoyl]piperidin-4-yl}methyl)-2H-indazole-5-carboxamide]",> 50 nM
23,"COCCNC(=O)c1ccc2nn(CC3CCN(C(=O)c4ccc(Oc5nccc(C(F)(F)F)n5)cc4)CC3)cc2c1C [Example E163, N-(2-methoxyethyl)-4-methyl-2-{[1-(4-{[4-(trifluoromethyl)pyrimidin-2-yl]oxy}-benzoyl)piperidin-4-yl]methyl}-2H-indazole-5-carboxamide]",> 50 nM
24,"COCCNC(=O)c1ccc2nn(CC3CCN(C(=O)c4ccc(Oc5ccc(C(F)(F)F)nc5)cc4)CC3)cc2c1C [Example E164, N-(2-methoxyethyl)-4-methyl-2-{[1-(4-{[6-(trifluoromethyl)pyridin-3-yl]oxy}benzoyl)-piperidin-4-yl]methyl}-2H-indazole-5-carboxamide]",> 50 nM
25,"COCCNC(=O)c1ccc2nn(CC3CCN(C(=O)c4ccc(Oc5cccc(C(F)(F)F)n5)cc4)CC3)cc2c1C [Example E165, N-(2-methoxyethyl)-4-methyl-2-{[1-(4-{[6-(trifluoromethyl)pyridin-2-yl]oxy}benzoyl)-piperidin-4-yl]methyl}-2H-indazole-5-carboxamide]",> 50 nM
26,"COCCNC(=O)c1ccc2nn(CC3CCN(C(=O)c4ccc(-c5ccc(OC)cc5)cc4)CC3)cc2c1C [Example E166, 2-({1-[(4′-methoxybiphenyl-4-yl)carbonyl]piperidin-4-yl}methyl)-N-(2-methoxyethyl)-4-methyl-2H-indazole-5-carboxamide]",> 50 nM
27,"COCCNC(=O)c1ccc2nn(CC3CCN(C(=O)c4ccc(Oc5cccc(C(F)(F)F)c5)cc4)CC3)cc2c1C [Example E168, N-(2-methoxyethyl)-4-methyl-2-[(1-{4-[3-(trifluoromethyl)phenoxy]benzoyl}piperidin-4-yl)methyl]-2H-indazole-5-carboxamide]",> 50 nM
28,"COCCNC(=O)c1ccc2nn(CC3CCN(C(=O)c4ccc(Oc5ccc(Cl)cn5)cc4)CC3)cc2c1C [Example E170, 2-[(1-{4-[(5-chloropyridin-2-yl)oxy]benzoyl}piperidin-4-yl)methyl]-N-(2-methoxy-ethyl)-4-methyl-2H-indazole-5-carboxamide]",> 50 nM
29,"COCCNC(=O)c1ccc2nn(CC3CCN(C(=O)c4ccc(Oc5ccc(F)cc5F)cc4)CC3)cc2c1C [Example E171, 2-({1-[4-(2,4-difluorophenoxy)benzoyl]piperidin-4-yl}methyl)-N-(2-methoxyethyl)-4-methyl-2H-indazole-5-carboxamide]",> 50 nM
